Reference: PubChem BioAssay (NCI)
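Values below derive from 48-hour exposures of cells grown in 96-well plates, with endpoints linearly interpolated between the two concentrations bracketing the appropriate inhibition level. TGI denotes the concentration required for complete inhibition of growth.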

How the values were obtained:
Test in all cases: DTP human tumour cell line panel, 48 h
[1] = test system: DMS 114 small cell lung
[2] = test system: RPMI-8226 leukemia
[3] = test system: KM12 colon
[4] = test system: UO-31 renal
[5] = test system: MOLT-4 leukemia
[6] = test system: HCC-2998 colon
[7] = test system: SK-MEL-2 melanoma
[8] = test system: ACHN renal
[9] = test system: HL-60(TB) leukemia
[10] = test system: SF-268 CNS
[11] = test system: UACC-257 melanoma
[12] = test system: SK-OV-3 ovarian
[13] = test system: NCI-H226 lung
[14] = test system: 786-0 renal
[15] = test system: MALME-3M melanoma
[16] = test system: SR leukemia
[17] = test system: SK-MEL-5 melanoma
[18] = test system: RXF 393 renal
[19] = test system: SNB-78 CNS
[20] = test system: EKVX NSCLC
[21] = test system: A498 renal
[22] = test system: LOX IMVI melanoma
[23] = test system: DLD-1 colon
[24] = test system: NCI-H522 lung
[25] = test system: HOP-18 NSCLC
[26] = test system: HCT-15 colon
[27] = test system: NCI-H23 lung
[28] = test system: COLO 205 colon
[29] = test system: OVCAR-3 ovarian
[30] = test system: SF-539 CNS
[31] = test system: NCI-H460 lung
[32] = test system: SN12C renal
[33] = test system: SNB-75 CNS
[34] = test system: M14 melanoma
[35] = test system: SF-295 CNS
[36] = test system: K-562 leukemia
[37] = test system: IGROV1 ovarian
[38] = test system: LXFL 529 NSCLC
[39] = test system: CCRF-CEM leukemia
[40] = test system: CAKI-1 renal
[41] = test system: HOP-92 NSCLC
[42] = test system: OVCAR-5 ovarian
[43] = test system: SNB-19 CNS
[44] = test system: A549 NSCLC
[45] = test system: UACC-62 melanoma
[46] = test system: OVCAR-8 ovarian
[47] = test system: KM20L2 colon
[48] = test system: M19-MEL melanoma
[49] = test system: HCT-116 colon
[50] = test system: RXF-631 renal
[51] = test system: HT29 colon
[52] = test system: HOP-62 NSCLC
[53] = test system: U251 CNS
[54] = test system: TK-10 renal
[55] = test system: SK-MEL-28 melanoma
[56] = test system: SW-620 colon
[57] = test system: OVCAR-4 ovarian
[58] = test system: DMS 273 small cell lung

Compound: COc1ccc(SS(=O)(=O)c2ccc(OC)cc2)cc1
- TGI [1]: 30.6 µM
- TGI [2]: 75.4 µM
- TGI [3]: 30.7 µM
- TGI [4]: 27.2 µM
- TGI [5]: 47.8 µM
- TGI [6]: 29.8 µM
- TGI [7]: 87.5 µM
- TGI [8]: 33.1 µM
- TGI [9]: 7.81 µM
- TGI [10]: 32.9 µM
- TGI [11]: 49.4 µM
- TGI [12]: 69.4 µM
- TGI [13]: 50.1 µM
- TGI [14]: 32.7 µM
- TGI [15]: 80.4 µM
- TGI [16]: 61.4 µM
- TGI [17]: 33 µM
- TGI [18]: 32.3 µM
- TGI [19]: > 100 µM
- TGI [20]: 71.6 µM
- TGI [21]: 37 µM
- TGI [22]: 31.8 µM
- TGI [23]: 52.3 µM
- TGI [24]: 29.2 µM
- TGI [25]: 48.3 µM
- TGI [26]: > 100 µM
- TGI [27]: 49.1 µM
- TGI [28]: 33.2 µM
- TGI [29]: 33.8 µM
- TGI [30]: 34 µM
- TGI [31]: 83.9 µM
- TGI [32]: 36.7 µM
- TGI [33]: 45.5 µM
- TGI [34]: 41.6 µM
- TGI [35]: 39.3 µM
- TGI [36]: 47 µM
- TGI [37]: 24.4 µM
- TGI [38]: 34.4 µM
- TGI [39]: 10.2 µM
- TGI [40]: 43.3 µM
- TGI [41]: 60.4 µM
- TGI [42]: 76.4 µM
- TGI [43]: 65 µM
- TGI [44]: 69.2 µM
- TGI [45]: 38.5 µM
- TGI [46]: 31.9 µM
- TGI [47]: 38 µM
- TGI [48]: 46.4 µM
- TGI [49]: 30.3 µM
- TGI [50]: > 100 µM
- TGI [51]: 64.1 µM
- TGI [52]: 50.9 µM
- TGI [53]: 27.6 µM
- TGI [54]: 50.2 µM
- TGI [55]: 40.1 µM
- TGI [56]: 18.1 µM

Compound: COc1cc([C@@H]2c3cc4c(cc3[C@@H](NC(=O)c3cccc(C#N)c3)C3COC(=O)[C@@H]32)OCO4)cc(OC)c1O (stereo partly drawn)
- TGI [2]: 29.4 µM
- TGI [3]: 5.21 µM
- TGI [4]: 19.2 µM
- TGI [5]: 33 µM
- TGI [6]: 6.34 µM
- TGI [7]: 8.83 µM
- TGI [8]: 1.98 µM
- TGI [9]: 12.3 µM
- TGI [10]: > 100 µM
- TGI [11]: > 100 µM
- TGI [13]: 0.67 µM
- TGI [14]: > 100 µM
- TGI [15]: 5.18 µM
- TGI [57]: > 100 µM
- TGI [58]: 13.8 µM
- TGI [17]: 13.6 µM
- TGI [18]: 45.5 µM
- TGI [19]: > 100 µM
- TGI [20]: 7.49 µM
- TGI [21]: 4.98 µM
- TGI [22]: 10.5 µM
- TGI [23]: 16.8 µM
- TGI [24]: 3.16 µM
- TGI [25]: > 100 µM
- TGI [26]: 24.5 µM
- TGI [27]: 0.811 µM
- TGI [28]: > 100 µM
- TGI [29]: 8.74 µM
- TGI [30]: 1.56 µM
- TGI [31]: 2.53 µM
- TGI [32]: 1.81 µM
- TGI [33]: 4.85 µM
- TGI [34]: > 100 µM
- TGI [36]: > 100 µM
- TGI [37]: 6.54 µM
- TGI [38]: > 100 µM
- TGI [39]: > 100 µM
- TGI [40]: 16.3 µM
- TGI [41]: 9.89 µM
- TGI [42]: 25.5 µM
- TGI [43]: 8.62 µM
- TGI [44]: 2.51 µM
- TGI [45]: 2.95 µM
- TGI [46]: 14.6 µM
- TGI [47]: 7.53 µM
- TGI [49]: 12.7 µM
- TGI [50]: 14.6 µM
- TGI [51]: 11.5 µM
- TGI [53]: 1.81 µM
- TGI [54]: 7.86 µM
- TGI [55]: > 100 µM
- TGI [56]: 17.8 µM
